ChEMBL document CHEMBL1201862, “PubChem BioAssay data set” (2004)
Activity calls are given as the source filed them.

Assays:
[1] = THP-1 cell cytotoxicity, dose response, cytotoxicity control for non-replicating M. tuberculosis project (AID 489025); type: functional
[2] = Vero E6 cell cytotoxicity, dose response, cytotoxicity control for non-replicating M. tuberculosis project, secondary assay (AID 492998); type: functional, VeroE6; details: Vero C1008
[3] = target: Microphthalmia-associated transcription factor (Homo sapiens, UniProt O75030); experiment: reducers of TRPM1 reporter luminescence, concentration series – cell-based, SK-MEL-5, cherry-picked, set 3, MITF inhibitor project, dose response (AID 493073); type: functional;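 note: SK-MEL-5 melanoma cells with luciferase driven by the MITF target TRPM1 promoter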
[4] = cells; type: functional
[5] = target: Ion channel NompC (Danio rerio, UniProt Q7T1G6); experiment: Dose response cell-based high-throughput screening assay for agonists of the transient receptor potential channel N1 (TRPN1). [Related pubchem assays (depositor defined):AID1424, AID1448]; type: functional
[6] = target: T1, Mucolipin-3 (Homo sapiens, UniProt Q8TDD5); experiment: Fluorescence counterscreen assay for […] agonists: dose response cell-based high-throughput screening assay to identify agonists of the transient receptor potential channel ML3 (TRPML3). [Related pubchem assays: 1424, 1448 ]; type: functional
T1 sequence (Q8TDD5 whole entry): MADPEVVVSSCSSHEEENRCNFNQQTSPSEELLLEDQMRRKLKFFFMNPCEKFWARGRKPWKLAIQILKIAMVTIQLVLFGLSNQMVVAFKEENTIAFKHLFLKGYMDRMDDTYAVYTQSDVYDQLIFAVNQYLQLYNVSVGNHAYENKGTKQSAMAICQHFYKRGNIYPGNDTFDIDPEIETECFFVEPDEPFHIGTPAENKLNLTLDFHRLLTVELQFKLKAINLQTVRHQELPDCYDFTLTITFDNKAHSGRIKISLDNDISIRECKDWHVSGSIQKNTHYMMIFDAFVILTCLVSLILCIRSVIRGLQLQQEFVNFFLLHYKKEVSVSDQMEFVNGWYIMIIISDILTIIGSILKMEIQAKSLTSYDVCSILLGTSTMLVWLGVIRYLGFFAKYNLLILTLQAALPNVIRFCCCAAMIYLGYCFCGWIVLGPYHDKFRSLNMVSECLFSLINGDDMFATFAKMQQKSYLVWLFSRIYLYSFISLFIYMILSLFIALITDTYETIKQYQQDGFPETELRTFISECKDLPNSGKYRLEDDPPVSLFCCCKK

[7] = target: Mannose-6-phosphate isomerase (Homo sapiens, UniProt P34949); experiment: MPI inhibition at elevated mannose 6-phosphate – biochemical, fluorescence intensity, high mannose 6-phosphate, primary screen (AID 1220)
[8] = target: Alkaline phosphatase, placental type (Homo sapiens, UniProt P05187); experiment: human placental alkaline phosphatase inhibition – biochemical, luminescence, confirmation (AID 1512); type: functional
[9] = target: T2, Alkaline phosphatase, tissue-nonspecific isozyme (Homo sapiens, UniProt P05186); experiment: potency against alkaline phosphatase TNAP – biochemical, luminescent, dose response, SAR follow-up (AID 1056)
T2 sequence (P05186 whole entry): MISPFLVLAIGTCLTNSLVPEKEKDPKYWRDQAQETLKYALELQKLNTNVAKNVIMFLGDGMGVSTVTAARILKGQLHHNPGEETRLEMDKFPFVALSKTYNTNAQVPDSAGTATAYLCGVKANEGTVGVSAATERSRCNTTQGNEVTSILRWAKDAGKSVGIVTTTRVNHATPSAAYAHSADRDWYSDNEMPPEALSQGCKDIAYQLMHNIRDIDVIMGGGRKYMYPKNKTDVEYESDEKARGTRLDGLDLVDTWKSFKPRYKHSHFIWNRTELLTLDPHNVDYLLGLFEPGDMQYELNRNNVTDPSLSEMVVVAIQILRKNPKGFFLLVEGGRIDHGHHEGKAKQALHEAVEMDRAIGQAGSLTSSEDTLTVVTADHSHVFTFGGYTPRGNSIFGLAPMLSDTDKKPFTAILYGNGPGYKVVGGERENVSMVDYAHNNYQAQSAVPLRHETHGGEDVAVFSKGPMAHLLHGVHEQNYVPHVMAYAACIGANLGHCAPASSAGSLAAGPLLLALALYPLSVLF

[10] = target: T3, Bcl-2-related protein A1 (Mus musculus, UniProt Q07440); type: functional;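 note: confirmatory dose–response counterscreen on Bfl-1, used to check hits from a UBC13 polyubiquitin inhibitor campaign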
T3 sequence (Q07440 whole entry): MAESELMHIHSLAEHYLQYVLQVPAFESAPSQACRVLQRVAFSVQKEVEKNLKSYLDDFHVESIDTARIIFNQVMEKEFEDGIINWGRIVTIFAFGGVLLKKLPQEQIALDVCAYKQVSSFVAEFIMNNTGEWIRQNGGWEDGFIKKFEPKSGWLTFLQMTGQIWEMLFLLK

[11] = target: T4, Ubiquitin-conjugating enzyme E2 N (Homo sapiens, UniProt P61088); type: functional
T4 sequence (P61088 whole entry): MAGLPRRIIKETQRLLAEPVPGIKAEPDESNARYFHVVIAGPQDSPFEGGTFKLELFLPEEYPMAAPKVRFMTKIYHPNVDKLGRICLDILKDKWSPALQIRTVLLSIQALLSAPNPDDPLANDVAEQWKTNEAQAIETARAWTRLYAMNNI

[12] = target: T4, Ubiquitin-conjugating enzyme E2 N; type: functional; remark: listed apart in the source
[13] = target: G-protein coupled receptor 55 (Homo sapiens, UniProt Q9Y2T6); experiment: blockers of GPR55 signalling, imaged – imaging, image-based, counter-screen for GPR35 antagonist project, SAR follow-up (AID 2397); type: functional
[14] = target: T5, Replicative DNA helicase DnaB (Mycobacterium tuberculosis, UniProt P9WMR3); experiment: DnaB intein splicing inhibitors, dose response, biochemical, cell-free fluorescence (AID 449749); type: functional
T5 sequence (P9WMR3 whole entry): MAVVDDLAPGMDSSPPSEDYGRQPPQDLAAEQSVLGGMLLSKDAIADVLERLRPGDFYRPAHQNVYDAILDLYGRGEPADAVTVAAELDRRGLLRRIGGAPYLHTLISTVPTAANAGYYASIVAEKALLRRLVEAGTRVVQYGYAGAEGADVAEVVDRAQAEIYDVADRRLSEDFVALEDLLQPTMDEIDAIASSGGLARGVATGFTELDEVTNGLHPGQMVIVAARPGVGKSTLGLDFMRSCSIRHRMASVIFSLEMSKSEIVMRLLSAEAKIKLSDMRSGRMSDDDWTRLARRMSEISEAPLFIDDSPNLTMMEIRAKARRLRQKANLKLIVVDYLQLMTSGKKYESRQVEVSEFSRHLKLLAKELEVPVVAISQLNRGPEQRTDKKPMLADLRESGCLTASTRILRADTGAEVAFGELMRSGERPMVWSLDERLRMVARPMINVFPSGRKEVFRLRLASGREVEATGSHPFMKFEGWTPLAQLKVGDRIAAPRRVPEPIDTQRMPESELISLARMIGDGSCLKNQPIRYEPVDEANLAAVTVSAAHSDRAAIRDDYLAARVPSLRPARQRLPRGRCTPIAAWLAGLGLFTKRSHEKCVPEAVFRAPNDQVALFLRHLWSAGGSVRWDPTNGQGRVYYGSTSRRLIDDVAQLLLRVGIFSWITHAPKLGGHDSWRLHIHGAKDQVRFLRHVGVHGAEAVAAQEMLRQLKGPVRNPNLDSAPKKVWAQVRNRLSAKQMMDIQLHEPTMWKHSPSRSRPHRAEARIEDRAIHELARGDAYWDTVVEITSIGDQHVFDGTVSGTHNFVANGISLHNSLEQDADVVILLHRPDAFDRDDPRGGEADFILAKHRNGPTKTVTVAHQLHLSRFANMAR

[15] = target: T6, Protein RecA (Mycobacterium tuberculosis, UniProt P9WHJ3); experiment: Fluorescence Cell-Free Homogeneous Dose Retest to Identify Inhibitors of RecA-Intein Splicing Activity. [Related pubchem assays (depositor defined):AID2097, AID2223, AID489010, AID492950]; type: functional
T6 sequence (P9WHJ3 whole entry): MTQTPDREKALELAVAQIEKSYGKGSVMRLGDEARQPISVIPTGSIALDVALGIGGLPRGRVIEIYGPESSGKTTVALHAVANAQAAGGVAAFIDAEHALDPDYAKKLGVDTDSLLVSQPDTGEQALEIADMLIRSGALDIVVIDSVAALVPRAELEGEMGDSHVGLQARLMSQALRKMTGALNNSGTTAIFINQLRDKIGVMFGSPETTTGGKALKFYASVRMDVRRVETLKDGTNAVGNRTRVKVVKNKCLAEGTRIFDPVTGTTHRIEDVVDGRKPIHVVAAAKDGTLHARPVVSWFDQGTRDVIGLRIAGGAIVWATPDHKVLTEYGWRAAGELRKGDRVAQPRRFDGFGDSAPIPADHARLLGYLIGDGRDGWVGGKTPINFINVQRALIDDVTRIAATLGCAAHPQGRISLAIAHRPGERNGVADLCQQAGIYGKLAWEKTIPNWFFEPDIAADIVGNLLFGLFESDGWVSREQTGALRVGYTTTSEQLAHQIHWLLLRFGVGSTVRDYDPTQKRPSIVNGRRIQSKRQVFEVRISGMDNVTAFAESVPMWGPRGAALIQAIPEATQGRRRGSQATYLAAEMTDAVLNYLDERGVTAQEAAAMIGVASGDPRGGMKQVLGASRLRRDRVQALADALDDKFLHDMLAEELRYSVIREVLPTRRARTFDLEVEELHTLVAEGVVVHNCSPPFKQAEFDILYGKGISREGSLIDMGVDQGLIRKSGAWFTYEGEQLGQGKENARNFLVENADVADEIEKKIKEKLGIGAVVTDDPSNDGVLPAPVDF

[16] = tested on: Streptococcus sp. 'group A'; experiment: Streptococcus pyogenes SK(-)GAS viability under kanamycin – luminescence, BacTiterGlo, confirmation, counter-screen for streptokinase expression inhibitor project, dose response (AID 1900); type: functional, organism-based
[17] = target: T7, Streptokinase A (Streptococcus pyogenes serotype M1, UniProt P10520); experiment: viability-normalized secreted streptokinase activity reduction – plasminogen activation absorbance, OD405, dose response (AID 1914); type: functional, Streptococcus pyogenes M1 GAS;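 note: secreted streptokinase activity via plasminogen activation per viability signal from cell pellet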
T7 sequence (P10520 whole entry): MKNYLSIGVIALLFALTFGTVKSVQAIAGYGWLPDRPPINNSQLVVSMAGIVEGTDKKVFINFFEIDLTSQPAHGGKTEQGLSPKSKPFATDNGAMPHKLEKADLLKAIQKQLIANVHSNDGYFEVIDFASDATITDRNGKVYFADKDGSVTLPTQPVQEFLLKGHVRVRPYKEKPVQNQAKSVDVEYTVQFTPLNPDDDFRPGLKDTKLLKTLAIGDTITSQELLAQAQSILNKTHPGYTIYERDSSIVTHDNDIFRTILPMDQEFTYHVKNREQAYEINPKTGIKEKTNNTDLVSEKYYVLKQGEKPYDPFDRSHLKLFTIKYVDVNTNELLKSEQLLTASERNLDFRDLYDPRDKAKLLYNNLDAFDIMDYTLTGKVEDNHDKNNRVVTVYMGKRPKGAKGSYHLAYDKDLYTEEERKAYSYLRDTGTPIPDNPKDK

[18] = CCR5-tropic HIV-1 fusion blockers – cell-based, CCR5-tropic Env, dose response (AID 2279); type: functional
[19] = tested on: Streptococcus; experiment: GAS UMAA2166 growth inhibition – luminescence, BacTiterGlo, counter-screen for streptokinase expression inhibitor project, dose response (AID 1915); type: functional, organism-based;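 note: potency for reduction of bacterial viability or growth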
[20] = Luminescence Cell-Based Dose Retest to Confirm Inhibitors of Cancer Stem Cells. [Related pubchem assays (depositor defined):AID2717, AID2721]; type: functional; details: Homo sapiens
[21] = reduction of Shn3 3'UTR-driven luciferase in osteoblasts – cell-based, Clone20 osteoblasts, firefly luciferase, cherry-picked, dose response (AID 624132); type: functional;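 note: firefly luciferase luminescence from reporter carrying the Shn3 3'UTR in osteoblasts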
[22] = loss of viability in HepG2 cells – cell-based, CellTiter-Glo, cherry-picked, cytotoxicity control for Shn3 inhibitor project, dose response (AID 624134); type: functional
[23] = non-specific 3'UTR reporter inhibition in Clone20-Shn3RL – cell-based, Renilla luciferase, cherry-picked, counter-screen for Shn3 inhibitor project, dose response (AID 624133); type: functional
[24] = decrease of insulin promoter-GFP reporter – imaging, high-content screening, mouse beta cells (AID 1628); type: functional; details: MIN6
[25] = cells; type: functional, cell-based
[26] = MIN6 cell viability loss – mouse insulinoma, cytotoxicity control, dose response (AID 2122); type: functional;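 note: confirmatory high-throughput counterscreen run to flag cytotoxic compounds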
[27] = Trypanosoma cruzi growth suppression in host cells – NIH3T3 host cells, beta-gal luminescence, confirmation (AID 2044); type: functional, cell-based;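 note: intracellular parasites grown in NIH/3T3 mouse fibroblasts as host cells; luminescent beta-galactosidase reporter signal from transgenic T. cruzi replicating inside host cells; inhibitors lower the luminescence signal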
[28] = cells; type: functional, cell-based; remark: listed apart in the source
[29] = target: Troponin, cardiac muscle (Homo sapiens, UniProt P19429+P45379+P63316); experiment: Fluorescence-based biochemical high throughput dose response assay for activators of the calcium sensitivity of cardiac Regulated Thin Filaments (RTF). [Related pubchem assays (depositor defined):AID493008, AID493018, AID504382, AID504383]; type: protein-complex assay

Cc1ccc(C(=O)N/N=C\c2ccc([N+](=O)[O-])s2)cn1
CC50 [1]: 26.2 µM (active)
CC50 [2]: 13.1 µM (active)
AC50 [3]: 2.95 µM (active)
IC50 [4]: 4.87 µM (active)

N#C/C(=C\c1ccccn1)c1nc2ccccc2s1
EC50 [5]: 0.672 µM (active)
EC50 [6]: > 1.11 µM (not active)

COC(=O)C(N)Cc1ccc(O)c(O)c1 (stereo unspecified)
IC50 [7]: > 50 µM (not active)
IC50 [8]: 8.43 µM (active)
IC50 [9]: > 100 µM (inactive)

COc1ccccc1NC(=O)COc1ccc(C(=O)NCc2ccccc2)cc1OC
IC50 [10]: > 20 µM (inactive)
IC50 [11]: 13 µM (active)
IC50 [12]: > 20 µM (inactive)

O=C(CCCN1C(=O)/C(=C\c2ccccc2)SC1=S)Nc1ccc(O)cc1
IC50 [13]: > 32 µM (inactive)
AC50 [14]: 39 µM (active)
EC50 [15]: 27.8 µM (active)

O=C(Nc1ccccc1Cc1ccccc1)c1ccccc1NS(=O)(=O)c1ccc(Cl)s1
EC50 [16]: 0.659 µM (active)
EC50 [17]: > 150 µM (not active)
EC50 [5]: > 29.9 µM (inactive)
IC50 [18]: 2.17 µM (active)
EC50 [6]: 24.3 µM (not active)
EC50 [19]: 4.09 µM (active)
AC50 [20]: 0.706 µM (active)
AC50 [21]: 8.18 µM (active)
AC50 [22]: 14.7 µM (active)
AC50 [23]: 18.2 µM (active)

COc1cc(C(=O)Oc2ccccc2/C=N/NC(=O)c2ccc(Cl)cc2)cc(OC)c1OC
IC50 [24]: 2.12 µM (active)
EC50 [25]: 9.29 µM (active)
IC50 [26]: 1.99 µM (active)
EC50 [27]: 1.31 µM (active)
EC50 [28]: > 350 µM (not active)
EC50 [29]: > 71.5 µM (inactive)
